The target of data set [1] is T1, PDGFRA-D842V (Homo sapiens, UniProt P16234, D842V).
T1 construct: purchased Invitrogen PV4203 (lot #2343231B)
As to the kind of experiment: Activity-based HTRF KinEASE assay, PDGFRA-D842V. The class given is biochemical. On the technique in general: In TR-FRET formats the signal depends on donor and acceptor labels being close together.

Data set [2] has as its target KIT-D816H (Homo sapiens, UniProt P10721, D816H). As to the kind of experiment: Activity-based HTRF KinEASE assay, KIT-D816H. Format: biochemical.
Data set [3] deals with ZR-75-1. As to the kind of experiment: CellTiter-Glo (CTG) EC50, ZR-75-1 breast cancer control cell line. Format: cell-based, human. The settings on record: Homo sapiens. As to the method: (§1) Cell line authenticity was confirmed by STR analysis at Eurofins Genomics. All cell lines were tested regularly for mycoplasma contamination using the Mycoplasmacheck Service at Eurofins Genomics. […] Following incubation for 24 h in a humidified atmosphere at 37 °C and 5% CO2, cells were treated with inhibitors in serial dilutions ranging from 30 µM down to 0.1 nM using an Echo650 acoustic liquid handler (Beckman Coulter). Cell viability was analyzed on day 5 using the CellTiter-Glo® assay (Promega) using 500 ms integration time. The obtained data were normalized to the plate positive control (30 µM staurosporine) and negative control (DMSO) and subsequently analyzed and fitted with the Quattro Software Suite (Quattro Research) using a four-parameter logistic model. As quality control, the Z’-factor was calculated from 16 positive and negative control values. Only assay results showing a Z’-factor ≥0.5 were used for further analysis. All experimental points were measured in duplicates for each plate and were independently replicated in at least three plates.

Data set [4] concerns MDA-MB-175VII. Kind of data set: CellTiter-Glo (CTG) EC50, MDA-MB-175VII breast cancer control cell line. The class given is cell-based, human. The conditions noted are these: Homo sapiens, MDA-MB-175-VII. On the procedure:
as §1

The nature of data set [5]: MDCKII-MDR1 permeability assay. The conditions noted are these: dog; for Papp B→A at 2 h, 10 µM: MDCK-MDR1.
Data set [6] concerns MDR1. Kind of data set: MDCKII-MDR1 permeability assay. The settings on record: dog; for efflux ratio at 2 h, 10 µM: MDCK-MDR1; for recovery at 2 h, 10 µM: MDCKII-MDR1, assay conc. 10.
Data set [7] relates to GIST-T1. Kind of data set: CellTiter-Glo (CTG) GR50, GIST-T1. The conditions noted are these: Homo sapiens. Background: In ATP-based viability assays light output follows the ATP content of the culture.
Data set [8] has as its system T1-T670I. Kind of data set: CellTiter-Glo (CTG) GR50, T1-T670I. The settings on record: Homo sapiens.
Data set [9] has as its system T1-V654A. Kind of data set: CellTiter-Glo (CTG) GR50, T1-V654A. The settings on record: Homo sapiens.
For data set [10], the system named is T1-a-5258. Kind of data set: CellTiter-Glo (CTG) GR50, T1-a-5258. The settings on record: Homo sapiens.
Data set [11] has as its system SK-LMS-1. Kind of data set: CellTiter-Glo (CTG) GR50, SK-LMS-1 control cell line. The settings on record: for CTG GR50 SK-LMS-1: mean ± s.d., n = 3, control cell line.
Data set [12] concerns GIST-48B. As to the kind of experiment: CellTiter-Glo (CTG) GR50, GIST-48B control cell line (off-target toxicity). The conditions noted are these: ratio of GR50 values; for GIST-48B/D842V: source data sheet.
The subject of data set [13] is MDCKII-MDR1 cells. Kind of data set: MDCKII-MDR1 permeability assay. The conditions noted are these: for permeability class of reference compound (Comment): reference compounds of the MDCKII-MDR1 assay.
The mark [14] stands for this setting: mean ± s.d., n ≥ 3, ATP at KM (14 µM), read-out: HTRF IC50 PDGFRA-D842V.
[15] abbreviates: raw data of Table 1, independent experiments 1-3, unit from Table 1, read-out: HTRF IC50 PDGFRA-D842V, single determinations.
Where [16] appears, read: mean ± s.d., n ≥ 3, ATP at KM (12 µM), read-out: HTRF IC50 KIT-D816H.
Setting [17] is: raw data of Table 1, independent experiments, unit from Table 1, read-out: HTRF IC50 KIT-D816H, single determinations.
The mark [18] stands for this setting: ZR-75-1, mean ± s.d., n = 3, control cell line, read-out: CTG EC50 ZR-75-1.
[19] abbreviates: ZR-75-1, raw data of Supp. Tab. 2, independent experiments, unit from Supp. Tab. 2, read-out: CTG EC50 ZR-75-1, single determinations.
The mark [20] stands for this setting: read-out: CTG EC50 MDA-MB-175VII, mean ± s.d., n = 3, control cell line.
Setting [21] is: read-out: CTG EC50 MDA-MB-175VII, single determinations, raw data of Supp. Tab. 2, independent experiments, unit from Supp. Tab. 2.
[22] abbreviates: MDCK-MDR1, MDCKII-MDR1 (Papp A→B), at 10 µM, 2 h, 37 °C, unit inferred.
[23] abbreviates: GISTT1, read-out: CTG GR50 GIST-T1, single determinations, raw data of Table 1, independent experiments, unit from Table 1.
The mark [24] stands for this setting: GISTT1, read-out: KIT CTG GR50 GIST-T1, mean ± s.d., n ≥ 3, GR50 half-maximal growth inhibition rate.
[25] abbreviates: read-out: CTG GR50 T1-T670I, single determinations, raw data of Supp. Tab. 1, independent experiments, unit from Supp. Tab. 1.
[26] abbreviates: read-out: KIT CTG GR50 T1-T670I, mean ± s.d., n ≥ 3.
[27] abbreviates: read-out: KIT CTG GR50 T1-V654A, mean ± s.d., n ≥ 3 (* n = 2 for ava).
Setting [28] is: read-out: CTG GR50 T1-a-5258, single determinations, raw data of Supp. Tab. 1, independent experiments, unit from Supp. Tab. 1.
[29] abbreviates: read-out: PDGFRA CTG GR50 T1-a-5258, mean ± s.d., n ≥ 3, triple mutant D842V, G652E, V658A.

Values joined by “and” are separate entries in the source; they are usually repeats but may differ in a detail not shown here. Equal values may be shown once. Read-outs that look alike come from different tables or passages of the source.

Sequence of KIT-D816H (P10721 26-976 D816H): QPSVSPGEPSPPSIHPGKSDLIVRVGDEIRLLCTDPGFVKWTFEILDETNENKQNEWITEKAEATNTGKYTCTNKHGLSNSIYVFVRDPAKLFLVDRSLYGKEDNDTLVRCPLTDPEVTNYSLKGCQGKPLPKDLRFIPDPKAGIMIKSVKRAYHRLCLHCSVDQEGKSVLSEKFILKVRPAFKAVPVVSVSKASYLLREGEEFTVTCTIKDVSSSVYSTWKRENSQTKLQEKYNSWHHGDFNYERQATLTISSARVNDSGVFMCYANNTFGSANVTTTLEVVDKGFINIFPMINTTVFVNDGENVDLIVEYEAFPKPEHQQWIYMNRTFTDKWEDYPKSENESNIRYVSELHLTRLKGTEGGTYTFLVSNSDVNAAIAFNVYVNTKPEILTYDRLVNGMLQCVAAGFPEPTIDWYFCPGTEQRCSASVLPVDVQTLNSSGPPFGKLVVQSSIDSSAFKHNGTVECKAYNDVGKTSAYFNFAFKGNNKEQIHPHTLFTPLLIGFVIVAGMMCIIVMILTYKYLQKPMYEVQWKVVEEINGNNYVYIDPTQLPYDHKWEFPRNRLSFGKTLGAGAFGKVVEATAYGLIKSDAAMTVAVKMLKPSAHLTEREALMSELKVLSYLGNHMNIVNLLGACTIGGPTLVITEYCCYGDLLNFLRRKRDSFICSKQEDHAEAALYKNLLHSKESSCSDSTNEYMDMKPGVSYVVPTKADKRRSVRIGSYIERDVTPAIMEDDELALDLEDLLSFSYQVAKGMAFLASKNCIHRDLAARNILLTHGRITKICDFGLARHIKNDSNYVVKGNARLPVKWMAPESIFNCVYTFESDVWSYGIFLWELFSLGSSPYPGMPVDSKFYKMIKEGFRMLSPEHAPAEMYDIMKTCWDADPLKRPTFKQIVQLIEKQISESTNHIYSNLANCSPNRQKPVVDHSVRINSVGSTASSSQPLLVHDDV
T1 sequence (P16234 24-1089 D842V): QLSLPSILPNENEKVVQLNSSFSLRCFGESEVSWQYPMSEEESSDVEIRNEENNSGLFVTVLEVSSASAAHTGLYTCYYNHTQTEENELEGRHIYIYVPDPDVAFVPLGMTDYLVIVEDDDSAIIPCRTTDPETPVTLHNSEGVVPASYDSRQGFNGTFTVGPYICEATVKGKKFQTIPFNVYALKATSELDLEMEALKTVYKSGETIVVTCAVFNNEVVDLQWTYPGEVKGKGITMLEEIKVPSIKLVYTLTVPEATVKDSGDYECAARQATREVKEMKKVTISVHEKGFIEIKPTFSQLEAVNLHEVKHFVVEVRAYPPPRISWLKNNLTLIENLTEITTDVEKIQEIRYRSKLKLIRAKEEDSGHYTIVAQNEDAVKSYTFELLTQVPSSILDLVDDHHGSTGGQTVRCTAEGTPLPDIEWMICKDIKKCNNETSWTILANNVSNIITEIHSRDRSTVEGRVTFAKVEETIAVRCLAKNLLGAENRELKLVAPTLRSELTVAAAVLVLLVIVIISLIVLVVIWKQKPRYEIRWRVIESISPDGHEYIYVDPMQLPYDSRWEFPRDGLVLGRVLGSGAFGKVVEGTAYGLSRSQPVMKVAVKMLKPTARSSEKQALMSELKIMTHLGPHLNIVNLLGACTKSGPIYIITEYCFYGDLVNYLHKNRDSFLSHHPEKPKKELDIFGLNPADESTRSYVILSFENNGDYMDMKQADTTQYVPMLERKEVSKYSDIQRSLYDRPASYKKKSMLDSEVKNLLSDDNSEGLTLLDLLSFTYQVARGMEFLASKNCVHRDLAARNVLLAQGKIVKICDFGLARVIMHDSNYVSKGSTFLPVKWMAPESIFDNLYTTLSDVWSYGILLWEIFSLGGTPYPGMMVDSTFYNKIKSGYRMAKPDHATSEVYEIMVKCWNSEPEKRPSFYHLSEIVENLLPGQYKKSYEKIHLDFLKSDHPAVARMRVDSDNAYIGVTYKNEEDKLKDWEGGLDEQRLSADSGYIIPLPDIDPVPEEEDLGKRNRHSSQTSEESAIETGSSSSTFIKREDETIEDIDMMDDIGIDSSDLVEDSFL

Take `C=CC(=O)N[C@@](C)(c1ccc(F)cc1)c1cnc(N2CCN(c3ncnn4cc(-c5cnn(C)c5)cc34)CC2)nc1` [Compound 11]: the IC50 – broadly, the concentration needed to halve the response being measured – is less than 0.1 nM in data set [1] (setting [14]); less than 0.1 nM in data set [1] (setting [15]); 0.5 ± 0.2 nM in data set [2] (setting [16]); 0.7 nM and 0.54 nM and 0.37 nM in data set [2] (setting [17]). Besides, the EC50 in data set [3] (setting [18]), in data set [3] (setting [19]), in data set [4] (setting [20]) and in data set [4] (setting [21]) was no less than 10000 nM in each case. Further, in data set [5], the Papp B→A – broadly, how fast a substance crosses the layer from the basolateral side – at 2 h, 10 µM is 1.99 ×10⁻⁶ cm/s. Also, in [5] (setting [22]), the Papp A→B – broadly, how fast a substance crosses the layer from the apical side – at 2 h, 10 µM was determined as 10.1 ×10⁻⁶ cm/s. Further, the efflux ratio (as a rule, the permeability from basolateral to apical divided by that in the opposite direction, in the common usage) at 2 h, 10 µM in data set [6] is 0.2. Besides, the recovery at 2 h, 10 µM in data set [6] (MDCK-MDR1, Recovery A->B) came to 34.2%; in data set [6] (MDCK-MDR1, Recovery B->A), 38.9%. The GI50 stood at 46 nM in [7] (setting [23]); 39 ± 7 nM in data set [7] (setting [24]); 402 nM in [8] (setting [25]); 413 ± 44 nM in [8] (setting [26]); 302 nM in data set [9] (read-out: CTG GR50 T1-V654A, single determinations, raw data of Supp. Tab. 1, independent experiments, unit from Supp. Tab. 1); 347 ± 108 nM in data set [9] (setting [27]). Moreover, the GI50 amounted to 2970 nM in data set [10] (setting [28]) and 3380 ± 360 nM in [10] (setting [29]). Moreover, the “CTG GR50 SK-LMS-1” value in data set [11] is 6.459 ± 3.067 µM and 6.459 µM. In addition, in data set [12], the “ratio GIST-48B/ T1-a-D842V” value is given as 144. The GIST-48B/D842V in [12] worked out at 144.
Take `CC(C)NCC(O)COc1cccc2ccccc12` (stereo not shown) [propranolol, reference compound]: the “permeability class of reference compound (Comment)” value in [13] was “highly permeable”; in [13] (listed as Propanolol) it was “permeable”. In data set [13] (reference compounds, mean over routine assay runs), the “MDCKII-MDR1 (PappA→B)” value was 32 ± 10.3 10-6 cm/s.
For the molecule `COC(=O)N[C@@](C)(c1ccc(F)cc1)c1cnc(N2CCN(c3ncnn4cc(-c5cnn(C)c5)cc34)CC2)nc1` [Compound 12], the IC50 was 0.2 ± 0.1 nM in data set [1] (setting [14]); 0.3 nM and 0.2 nM and 0.1 nM in [1] (setting [15]); 0.6 ± 0.4 nM in [2] (setting [16]); 1.1 nM and 0.3 nM and 0.53 nM in data set [2] (setting [17]). In addition, the EC50 in [3] (setting [18]), in data set [3] (setting [19]), in data set [4] (setting [20]) and in data set [4] (setting [21]) was no less than 10000 nM each time. This molecule yielded a Papp B→A at 2 h, 10 µM in data set [5] of 2.76 ×10⁻⁶ cm/s. Moreover, the Papp A→B at 2 h, 10 µM is 12.4 ×10⁻⁶ cm/s in [5] (setting [22]) and 12.4 ×10⁻⁶ cm/s in [5] (MDCK-MDR1, Papp A->B, MDCKII-MDR1, assay conc. 10, apical to basolateral). Also, the efflux ratio at 2 h, 10 µM in data set [6] amounted to 0.22. Besides, the recovery at 2 h, 10 µM in data set [6] (MDCK-MDR1, Recovery A->B) stood at 25.4%; in data set [6] (MDCK-MDR1, Recovery B->A), 49.7%. Also, the GI50 in [7] (setting [23]) was found to be 71 nM; in data set [7] (setting [24]), 60 ± 12 nM; in data set [8] (setting [25]), 620 nM; in [8] (setting [26]), 695 ± 135 nM; in data set [9] (setting [27]), 474 ± 155 nM; in data set [10] (setting [28]), 2400 nM. Also, in [10] (setting [29]), the GI50 amounted to 2220 ± 350 nM. In addition, the “CTG GR50 SK-LMS-1” value in [11] is 7.334 ± 2.31 µM and 7.334 µM. The “CTG GR50 SK-LMS-1, single determinations” value in data set [11] (raw data of Supp. Tab. 2, independent experiments, unit from Supp. Tab. 2) is 6.084 µM and 5.919 µM and 10 µM. Besides, in data set [12], the “ratio GIST-48B/ T1-a-D842V” value amounted to 256. The GIST-48B/D842V in [12] stood at 256.
